Measured values reported in patent US8575158B2, “1-phenyl-substituted heterocyclyl derivatives and their use as prostaglandin D2 receptor modulators” (Actelion Pharmaceuticals Ltd., priority 2010, dated 2013).

Molecular target: T1, hCRTH2 receptor (Homo sapiens, UniProt Q9Y5Y4)
T1 construct: expressed in transfected cells; host or cells: HEK293
T1 sequence (Q9Y5Y4 1-395): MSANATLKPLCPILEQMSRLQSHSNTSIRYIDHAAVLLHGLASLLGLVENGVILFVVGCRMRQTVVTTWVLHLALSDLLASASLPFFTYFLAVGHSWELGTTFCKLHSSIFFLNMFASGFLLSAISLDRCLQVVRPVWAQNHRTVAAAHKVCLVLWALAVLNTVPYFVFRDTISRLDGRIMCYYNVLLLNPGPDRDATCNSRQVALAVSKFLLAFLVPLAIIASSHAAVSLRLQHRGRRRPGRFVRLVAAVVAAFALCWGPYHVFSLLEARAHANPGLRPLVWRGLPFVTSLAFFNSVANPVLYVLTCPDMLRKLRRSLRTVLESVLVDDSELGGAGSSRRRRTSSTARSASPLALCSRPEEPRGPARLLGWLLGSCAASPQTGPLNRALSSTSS
Assay: Radioligand displacement assay (3H-PGD2) on hCRTH2 receptor membranes
Format: binding
Details: antagonistic activity, 3H-PGD2 radioligand displacement, HEK293-hCRTH2 membranes

| IC50 [nM] | SMILES |
| --- | --- |
| 64.1 | O=C(O)COc1ccc(Cl)cc1C1c2ccccc2CCN1C(=O)CCn1cnc2ccccc21 (racemic) [Example 451] |
| 11 | O=C(O)COc1ccc(Cl)cc1[C@@H]1c2ccc(F)c(F)c2CCN1C(=O)OCCc1cccc(F)c1 [Example 311, (S)-1-(2-Carboxymethoxy-5-chloro-phenyl)-5,6-difluoro-3,4-dihydro-1H-isoquinoline-2-carboxylic acid 2-(3-fluoro-phenyl)-ethyl ester] |
| 3.2 | Cc1ncc(COC(=O)N2CCc3cc(F)ccc3[C@H]2c2cc(Cl)ccc2OCC(=O)O)s1 [Example 328, (S)-1-(2-Carboxymethoxy-5-chloro-phenyl)-6-fluoro-3,4-dihydro-1H-isoquinoline-2-carboxylic acid 2-methyl-thiazol-5-ylmethyl ester] |
| 8.92 | Cc1cc(C)n(CCOC(=O)N2CCc3ccccc3[C@H]2c2cc(Cl)ccc2OCC(=O)O)n1 [Example 291, (S)-1-(2-Carboxymethoxy-5-chloro-phenyl)-3,4-dihydro-1H-isoquinoline-2-carboxylic acid 2-(3,5-dimethyl-pyrazol-1-yl)-ethyl ester] |
| 650 | O=C(O)COc1ccc(Cl)cc1C1c2ccccc2CCN1C(=O)COc1cc(Cl)nc(Cl)c1 (racemic) [Example 473] |
| 340 | O=C(O)COc1ccc(Cl)cc1C1c2ccccc2CN1C(=O)CCn1ncc2cc(Cl)ccc21 (centres unmarked) [Example 544] |
| 3.58 | COc1ccccc1COC(=O)N1CCc2ccccc2[C@H]1c1cc(Cl)ccc1OCC(=O)O [Example 356, (S)-1-(2-Carboxymethoxy-5-chloro-phenyl)-3,4-dihydro-1H-isoquinoline-2-carboxylic acid 2-methoxy-benzyl ester] |
| 126 | Cc1ccc(OCC(=O)N2CCc3ccccc3C2c2cc(Cl)ccc2OCC(=O)O)cc1 (racemic) [Example 414] |
| 6.26 | O=C(O)COc1ccc(Cl)cc1[C@@H]1c2ccc(F)cc2CCN1C(=O)OCc1nccs1 [Example 324, (S)-1-(2-Carboxymethoxy-5-chloro-phenyl)-6-fluoro-3,4-dihydro-1H-isoquinoline-2-carboxylic acid thiazol-2-ylmethyl ester] |
| 41.5 | O=C(O)COc1ccccc1C1c2ccccc2CCN1C(=O)OCc1ccccc1 (racemic) [Example 366] |
| 180 | Cc1[nH]c2ccccc2c1CCC(=O)N1Cc2ccccc2C1c1cc(Cl)ccc1OCC(=O)O (racemic) [Example 510] |
| 381 | O=C(O)COc1ccc(F)cc1C1c2cc(-c3cncnc3)ccc2CCN1C(=O)OCc1ccccc1 (racemic) [Example 498] |
| 0.2 | Cn1nccc1COC(=O)N1CCc2ccccc2[C@H]1c1cc(Cl)ccc1OCC(=O)O [Example 287, (S)-1-(2-Carboxymethoxy-5-chloro-phenyl)-3,4-dihydro-1H-isoquinoline-2-carboxylic acid 2-methyl-2H-pyrazol-3-ylmethyl ester] |
| 185 | CCO[C@@H]1C[C@H]1C(=O)N1CCc2ccccc2[C@H]1c1cc(Cl)ccc1OCC(=O)O [Example 461] |
| 881 | Cc1nn(CCC(=O)N2Cc3ccccc3C2c2cc(Cl)ccc2OCC(=O)O)c2cc(Cl)ccc12 (single isomer, unassigned) [Example 542, (4-Chloro-2-{2-[3-(6-chloro-3-methyl-indazol-1-yl)-propionyl]-2,3-dihydro-1H-isoindol-1-yl}-phenoxy)-acetic acid] |
| 30.9 | Cc1nn(CCC(=O)N2Cc3ccccc3C2c2cc(Cl)ccc2OCC(=O)O)c2cc(F)ccc12 (single isomer, unassigned) [Example 531, (4-Chloro-2-{2-[3-(6-fluoro-3-methyl-indazol-1-yl)-propionyl]-2,3-dihydro-1H-isoindol-1-yl}-phenoxy)-acetic acid] |

Same assay, conditions: antagonistic activity; 3H-PGD2 displacement on HEK293-hCRTH2 membrane fragments

| IC50 [nM] | SMILES |
| --- | --- |
| 205 | Cc1ccc2onc(CC(=O)N3CCc4ccccc4C3c3cc(Cl)ccc3OCC(=O)O)c2c1 (racemic) [Example 100, (±)-(4-Chloro-2-{2-[2-(5-methyl-benzo[d]isoxazol-3-yl)-acetyl]-1,2,3,4-tetrahydro-isoquinolin-1-yl}-phenoxy)-acetic acid] |
| 54 | O=C(O)COc1ccc(F)cc1C1c2ccccc2CCN1C(=O)NCc1ccccc1 (racemic) [Example 199] |
| 48 | O=C(O)COc1ccc(F)cc1C1c2ccccc2CCN1C(=O)CCc1ccccc1Cl (racemic) [Example 131, (±)-(2-{2-[3-(2-Chloro-phenyl)-propionyl]-1,2,3,4-tetrahydro-isoquinolin-1-yl}-4-fluoro-phenoxy)-acetic acid] |
| 347 | O=C(O)COc1ccc(F)cc1C1c2ccccc2CCN1C(=O)CNS(=O)(=O)c1cccc(F)c1 (racemic) [Example 207] |
| 126 | O=C(O)COc1ccc(F)cc1C1c2ccccc2CCN1C(=O)CCc1ccc(Cl)cc1 (racemic) [Example 133, (±)-(2-{2-[3-(4-Chloro-phenyl)-propionyl]-1,2,3,4-tetrahydro-isoquinolin-1-yl}-4-fluoro-phenoxy)-acetic acid] |
| 73.9 | O=C(O)COc1ccc(F)cc1C1c2ccccc2CCN1C(=O)CCOc1ccccc1 (racemic) [Example 144, (±)-{4-Fluoro-2-[2-(3-phenoxy-propionyl)-1,2,3,4-tetrahydro-isoquinolin-1-yl]-phenoxy}-acetic acid] |
| 46.9 | O=C(O)COc1ccc(Cl)cc1C1c2ccccc2CCN1C(=O)Cn1cc2ccccc2n1 (racemic) [Example 80, (±)-{4-Chloro-2-[2-(2-indazol-2-yl-acetyl)-1,2,3,4-tetrahydro-isoquinolin-1-yl]-phenoxy}-acetic acid] |
| 0.96 | O=C(O)COc1ccc(Cl)cc1C1c2ccccc2CCN1C(=O)OCc1ccc(Cl)cc1Cl (racemic) [Example 241] |
| 36.4 | O=C(O)COc1ccc(F)cc1C1c2ccccc2CCN1C(=O)CC1Cc2ccccc2C1 (racemic) [Example 140, (±)-{4-Fluoro-2-[2-(2-indan-2-yl-acetyl)-1,2,3,4-tetrahydro-isoquinolin-1-yl]-phenoxy}-acetic acid] |
| 4.13 | Cc1[nH]c2ccccc2c1CCC(=O)N1CCc2ccccc2C1c1cc(Cl)ccc1OCC(=O)O (racemic) [Example 73, (±)-(4-Chloro-2-{2-[3-(2-methyl-1H-indol-3-yl)-propionyl]-1,2,3,4-tetrahydro-isoquinolin-1-yl}-phenoxy)-acetic acid] |
| 19.9 | COc1ccc2c(c1)C(c1cc(F)ccc1OCC(=O)O)N(C(=O)OCc1ccccc1)CC2 (racemic) [Example 37, (±)-1-(2-Carboxymethoxy-5-fluoro-phenyl)-7-methoxy-3,4-dihydro-1H-isoquinoline-2-carboxylic acid benzyl ester] |
| 3.43 | Cc1cccc(COC(=O)N2CCc3ccccc3C2c2cc(Cl)ccc2OCC(=O)O)c1C (racemic) [Example 246] |
| 37.6 | CC(C)COC(=O)N1CCc2ccccc2C1c1cc(Cl)ccc1OCC(=O)O (racemic) [Example 265] |
| 730 | Cc1nc(CC(=O)N2CCc3ccccc3C2c2cc(F)ccc2OCC(=O)O)cs1 (racemic) [Example 57, (±)-(4-Fluoro-2-{2-[2-(2-methyl-thiazol-4-yl)-acetyl]-1,2,3,4-tetrahydro-isoquinolin-1-yl}-phenoxy)-acetic acid] |
| 17.8 | O=C(O)COc1ccc(Cl)cc1C1c2ccccc2CCN1C(=O)CCOc1cccc(F)c1 (racemic) [Example 87, (±)-(4-Chloro-2-{2-[3-(3-fluoro-phenoxy)-propionyl]-1,2,3,4-tetrahydro-isoquinolin-1-yl}-phenoxy)-acetic acid] |
| 9.38 | N#Cc1ccc(OCC(=O)O)c(C2c3cccc(F)c3CCN2C(=O)OCc2ccccc2)c1 (racemic) [Example 19, (±)-1-(2-Carboxymethoxy-5-cyano-phenyl)-5-fluoro-3,4-dihydro-1H-isoquinoline-2-carboxylic acid benzyl ester] |
| 191 | Cc1[nH]c2ccccc2c1CCC(=O)N1CCc2ccccc2C1c1cc(F)ccc1OCC(=O)O (racemic) [Example 65, (±)-(4-Fluoro-2-{2-[3-(2-methyl-1H-indol-3-yl)-propionyl]-1,2,3,4-tetrahydro-isoquinolin-1-yl}-phenoxy)-acetic acid] |
| 819 | Cc1noc(C)c1S(=O)(=O)NCC(=O)N1CCc2ccccc2C1c1cc(F)ccc1OCC(=O)O (racemic) [Example 206] |
| 323 | Cn1ccc(COCC(=O)N2CCc3ccccc3C2c2cc(F)ccc2OCC(=O)O)n1 (racemic) [Example 197, (±)-(4-Fluoro-2-{2-[2-(1-methyl-1H-pyrazol-3-ylmethoxy)-acetyl]-1,2,3,4-tetrahydro-isoquinolin-1-yl}-phenoxy)-acetic acid] |
| 23.4 | O=C(O)COc1ccc(Cl)cc1C1c2ccccc2CCN1C(=O)CCCc1cccc(Cl)c1 (racemic) [Example 112, (±)-(4-Chloro-2-{2-[4-(3-chloro-phenyl)-butyryl]-1,2,3,4-tetrahydro-isoquinolin-1-yl}-phenoxy)-acetic acid] |
| 23 | O=C(O)COc1ccc(F)cc1C1c2ccc(F)c(Br)c2CCN1C(=O)OCc1ccccc1 (racemic) [Example 40, (±)-5-Bromo-1-(2-carboxymethoxy-5-fluoro-phenyl)-6-fluoro-3,4-dihydro-1H-isoquinoline-2-carboxylic acid benzyl ester] |

Same assay, conditions: radioligand displacement (3H-PGD2), hCRTH2 receptor membranes; antagonistic activity

| IC50 [nM] | SMILES |
| --- | --- |
| 120 | O=C(COc1ccc(Cl)cc1[C@@H]1c2ccccc2CCN1C(=O)OCc1ccccc1)NO [Example 569, (S)-1-(5-Chloro-2-hydroxycarbamoylmethoxy-phenyl)-3,4-dihydro-1H-isoquinoline-2-carboxylic acid benzyl ester] |
